Literature values as cited in patent publication US8877698B2, “Method and composition for disinfecting hard surfaces” (priority 2001, dated 2014).

Tested on: poliovirus

CCO [ethanol]
minimum concentration required to inactivate poliovirus: 70% | virucidal action against poliovirus: little virucidal action
